We go through 3 compounds from publication PMC9986241 (Signal Transduction and Targeted Therapy, 2023).

What all share (type): biochemical
The target of one assay is T1, TAO1(h) (Homo sapiens, UniProt Q7L7X3).
T1 construct: purchased Eurofins KinaseProfiler
As to the kind of experiment: KinaseProfiler enzyme profiling. Here is the method: (§1) Enzyme profiling services were provided by KinaseProfiler™ (Eurofin, Brussels, Belgium). The concentration of erianin was 100 nM, and total 70 kinases were tested in this in vitro screening and profiling services (2 repetitions). For more details, refer to the manufacturer’s instructions (www.eurofinsdiscoveryservices.com).

Another assay has as its target T2, ATR/ATRIP(h) (Homo sapiens, UniProt Q13535).
T2 construct: purchased Eurofins KinaseProfiler
In words: KinaseProfiler enzyme profiling. How it is done:
as §1

For another assay, the target named is T3, PAK5(h) (Homo sapiens, UniProt Q9P286).
T3 construct: purchased Eurofins KinaseProfiler
As to the kind of experiment: KinaseProfiler enzyme profiling. Here is the method:
as §1

A further assay has as its target T4, SAPK2a(h) (Homo sapiens, UniProt Q16539).
T4 construct: purchased Eurofins KinaseProfiler
In words: KinaseProfiler enzyme profiling. Here is the method:
as §1

The target of a further assay is T5, NEK7(h) (Homo sapiens, UniProt Q8TDX7).
T5 construct: purchased Eurofins KinaseProfiler
As to the kind of experiment: KinaseProfiler enzyme profiling. Here is the method: as §1

In a further assay the target is T6, STK25(h) (Homo sapiens, UniProt O00506).
T6 construct: purchased Eurofins KinaseProfiler
In words: KinaseProfiler enzyme profiling. Here is the method: as §1

The next assay concerns the target T7, NEK6(h) (Homo sapiens, UniProt Q9HC98).
T7 construct: purchased Eurofins KinaseProfiler
As to the kind of experiment: KinaseProfiler enzyme profiling. Here is the method: as §1

Another assay has as its target T8, SAPK2b(h) (Homo sapiens, UniProt Q15759).
T8 construct: purchased Eurofins KinaseProfiler
In words: KinaseProfiler enzyme profiling. Here is the method: as §1

For a further assay, the target named is T9, PAK6(h) (Homo sapiens, UniProt Q9NQU5).
T9 construct: purchased Eurofins KinaseProfiler
As to the kind of experiment: KinaseProfiler enzyme profiling. Here is the method: as §1

In a further assay the target is T10, Aurora-B(h) (Homo sapiens, UniProt Q96GD4).
T10 construct: purchased Eurofins KinaseProfiler
In words: KinaseProfiler enzyme profiling. Here is the method:
as §1

The target of the next assay is T11, Flt4(h) (Homo sapiens, UniProt P35916).
T11 construct: purchased Eurofins KinaseProfiler
As to the kind of experiment: KinaseProfiler enzyme profiling. How it is done: as §1

For a further assay, the target named is T12, LKB1(h) (Homo sapiens, UniProt Q15831).
T12 construct: purchased Eurofins KinaseProfiler
As to the kind of experiment: KinaseProfiler enzyme profiling. Here is the method: as §1

The next assay addresses T13, FGFR2(h) (Homo sapiens, UniProt P21802).
T13 construct: purchased Eurofins KinaseProfiler
As to the kind of experiment: KinaseProfiler enzyme profiling. Here is the method:
as §1

The next assay concerns the target T14, CK2(h) (Homo sapiens, UniProt P68400).
T14 construct: purchased Eurofins KinaseProfiler
As to the kind of experiment: KinaseProfiler enzyme profiling. How it is done: as §1

In another assay the target is T15, CDK7/cyclinH(h) (Homo sapiens, UniProt P50613).
T15 construct: purchased Eurofins KinaseProfiler
As to the kind of experiment: KinaseProfiler enzyme profiling. Here is the method: as §1

A further assay has as its target T16, EphB2(h) (Homo sapiens, UniProt P29323).
T16 construct: purchased Eurofins KinaseProfiler
In words: KinaseProfiler enzyme profiling. Here is the method: as §1

The next assay concerns the target T17, HIPK2(h) (Homo sapiens, UniProt Q9H2X6).
T17 construct: purchased Eurofins KinaseProfiler
As to the kind of experiment: KinaseProfiler enzyme profiling. How it is done:
as §1

For the next assay, the target named is T18, FGFR3(h) (Homo sapiens, UniProt P22607).
T18 construct: purchased Eurofins KinaseProfiler
In words: KinaseProfiler enzyme profiling. How it is done: as §1

In the next assay the target is T19, CK1γ3(h) (Homo sapiens, UniProt Q9Y6M4).
T19 construct: purchased Eurofins KinaseProfiler
As to the kind of experiment: KinaseProfiler enzyme profiling. Here is the method: as §1

For the next assay, the target named is T20, MKK4(m) (Mus musculus, UniProt P47809).
T20 construct: purchased Eurofins KinaseProfiler
As to the kind of experiment: KinaseProfiler enzyme profiling. Here is the method:
as §1

The target of a further assay is T21, MKK7β(h) (Homo sapiens, UniProt O14733).
T21 construct: purchased Eurofins KinaseProfiler
As to the kind of experiment: KinaseProfiler enzyme profiling. Here is the method: as §1

The next assay has as its target T22, CSK(h) (Homo sapiens, UniProt P41240).
T22 construct: purchased Eurofins KinaseProfiler
As to the kind of experiment: KinaseProfiler enzyme profiling. Here is the method: as §1

The target of the next assay is T23, CK1γ2(h) (Homo sapiens, UniProt P78368).
T23 construct: purchased Eurofins KinaseProfiler
As to the kind of experiment: KinaseProfiler enzyme profiling. How it is done:
as §1

The target of the next assay is T24, EGFR(T790M)(h) (Homo sapiens, UniProt P00533, T790M).
T24 construct: purchased Eurofins KinaseProfiler
As to the kind of experiment: KinaseProfiler enzyme profiling. How it is done:
as §1

Another assay deals with T25, DAPK1(h) (Homo sapiens, UniProt P53355).
T25 construct: purchased Eurofins KinaseProfiler
As to the kind of experiment: KinaseProfiler enzyme profiling. How it is done: as §1

For the next assay, the target named is T26, cKit(h) (Homo sapiens, UniProt P10721).
T26 construct: purchased Eurofins KinaseProfiler
As to the kind of experiment: KinaseProfiler enzyme profiling. How it is done: as §1

Another assay concerns the target T27, Pim-3(h) (Homo sapiens, UniProt Q86V86).
T27 construct: purchased Eurofins KinaseProfiler
As to the kind of experiment: KinaseProfiler enzyme profiling. As to conditions: 100 nM. How it is done:
as §1

For another assay, the target named is T28, eEF-2K(h) (Homo sapiens, UniProt O00418).
T28 construct: purchased Eurofins KinaseProfiler
In words: KinaseProfiler enzyme profiling. The settings on record: 100 nM. How it is done: as §1

The next assay addresses T29, CDK5/p25(h) (Homo sapiens, UniProt Q00535).
T29 construct: purchased Eurofins KinaseProfiler
As to the kind of experiment: KinaseProfiler enzyme profiling. The settings on record: 100 nM. Here is the method:
as §1

A further assay deals with T30, A-Raf(h) (Homo sapiens, UniProt P10398).
T30 construct: purchased Eurofins KinaseProfiler
In words: KinaseProfiler enzyme profiling. The settings on record: 100 nM. How it is done: as §1

For another assay, the target named is T31, EphB1(h) (Homo sapiens, UniProt P54762).
T31 construct: purchased Eurofins KinaseProfiler
In words: KinaseProfiler enzyme profiling. The settings on record: 100 nM. How it is done:
as §1

In another assay the target is T32, EphA1(h) (Homo sapiens, UniProt P21709).
T32 construct: purchased Eurofins KinaseProfiler
As to the kind of experiment: KinaseProfiler enzyme profiling. The settings on record: 100 nM. How it is done: as §1

The target of the next assay is T33, Rsk3(h) (Homo sapiens, UniProt Q15349).
T33 construct: purchased Eurofins KinaseProfiler
As to the kind of experiment: KinaseProfiler enzyme profiling. The settings on record: 100 nM. Here is the method:
as §1

The target of the next assay is T34, Pim-2(h) (Homo sapiens, UniProt Q9P1W9).
T34 construct: purchased Eurofins KinaseProfiler
As to the kind of experiment: KinaseProfiler enzyme profiling. The settings on record: 100 nM. Here is the method:
as §1

The next assay deals with T35, MEK2(h) (Homo sapiens, UniProt P36507).
T35 construct: purchased Eurofins KinaseProfiler
As to the kind of experiment: KinaseProfiler enzyme profiling. How it is done: as §1

The target of another assay is T36, Flt1(h) (Homo sapiens, UniProt P17948).
T36 construct: purchased Eurofins KinaseProfiler
As to the kind of experiment: KinaseProfiler enzyme profiling. As to conditions: 100 nM. Here is the method:
as §1

A further assay deals with T37, BRAF V600E (416-end) (Homo sapiens, UniProt P15056, V600E).
T37 construct: purchased Signal Chem B08-12G
In words: In vitro kinase assay (western blotting). As to conditions: 12.5 to 50 nM. Here is the method: (§2) After incubated with 100–400 μM ATP in kinase assay buffer for 30 min, the phosphorylation of the substrate/total substrate protein was detected by western blotting. For ADP-glo kinase assay, unconsumed ATP was depleted with the addition of ADP-Glo™. Followed by kinase detection reagent to convert ADP to ATP, consumption of ATP was detected to evaluate the kinase activity. For more details, refer to the manufacturer’s instructions of ADP-Glo™ Kinase Assay.
(§3) Figure S2. […] Enzyme kinetics parameters including Vmax and Km were obtained using the Michaelis double-reciprocal curve equation.
(In western blotting, separated proteins are transferred to a membrane and probed.)

For the next assay, the target named is T38, BRAF WT (381-end) (Homo sapiens, UniProt P15056).
T38 construct: purchased Signal Chem B08-11BG
In words: In vitro kinase assay (western blotting). The settings on record: 12.5 to 50 nM. Here is the method: as §2, §3

T9 sequence (Q9NQU5 whole entry): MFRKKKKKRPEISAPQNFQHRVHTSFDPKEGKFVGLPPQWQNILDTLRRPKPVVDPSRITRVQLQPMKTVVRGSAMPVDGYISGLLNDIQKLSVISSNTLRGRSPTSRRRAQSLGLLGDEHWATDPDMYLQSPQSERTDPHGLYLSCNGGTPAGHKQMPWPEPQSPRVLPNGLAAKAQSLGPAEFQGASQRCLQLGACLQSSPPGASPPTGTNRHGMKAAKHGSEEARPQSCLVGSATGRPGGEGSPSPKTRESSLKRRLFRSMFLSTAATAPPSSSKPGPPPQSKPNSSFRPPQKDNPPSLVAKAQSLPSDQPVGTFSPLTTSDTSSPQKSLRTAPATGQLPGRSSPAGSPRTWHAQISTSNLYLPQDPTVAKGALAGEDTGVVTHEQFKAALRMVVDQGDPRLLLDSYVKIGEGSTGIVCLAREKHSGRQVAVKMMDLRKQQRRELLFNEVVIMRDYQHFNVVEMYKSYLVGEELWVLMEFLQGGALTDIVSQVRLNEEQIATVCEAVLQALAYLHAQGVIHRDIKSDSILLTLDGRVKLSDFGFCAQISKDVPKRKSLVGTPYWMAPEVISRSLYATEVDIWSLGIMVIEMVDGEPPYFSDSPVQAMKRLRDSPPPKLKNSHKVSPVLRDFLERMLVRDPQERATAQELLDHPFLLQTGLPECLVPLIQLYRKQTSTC
T38 sequence (P15056 381-766 limits assumed): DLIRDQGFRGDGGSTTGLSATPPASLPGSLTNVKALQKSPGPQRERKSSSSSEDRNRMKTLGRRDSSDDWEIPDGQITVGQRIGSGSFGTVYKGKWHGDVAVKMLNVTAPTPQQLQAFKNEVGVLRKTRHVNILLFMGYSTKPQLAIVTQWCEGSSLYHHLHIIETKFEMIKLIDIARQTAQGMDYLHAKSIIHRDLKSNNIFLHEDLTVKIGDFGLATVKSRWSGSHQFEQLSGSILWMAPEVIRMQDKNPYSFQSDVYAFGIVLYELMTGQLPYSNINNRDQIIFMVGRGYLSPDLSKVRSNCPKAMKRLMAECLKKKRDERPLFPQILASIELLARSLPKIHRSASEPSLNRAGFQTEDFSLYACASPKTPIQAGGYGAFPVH
T8 sequence (Q15759 whole entry): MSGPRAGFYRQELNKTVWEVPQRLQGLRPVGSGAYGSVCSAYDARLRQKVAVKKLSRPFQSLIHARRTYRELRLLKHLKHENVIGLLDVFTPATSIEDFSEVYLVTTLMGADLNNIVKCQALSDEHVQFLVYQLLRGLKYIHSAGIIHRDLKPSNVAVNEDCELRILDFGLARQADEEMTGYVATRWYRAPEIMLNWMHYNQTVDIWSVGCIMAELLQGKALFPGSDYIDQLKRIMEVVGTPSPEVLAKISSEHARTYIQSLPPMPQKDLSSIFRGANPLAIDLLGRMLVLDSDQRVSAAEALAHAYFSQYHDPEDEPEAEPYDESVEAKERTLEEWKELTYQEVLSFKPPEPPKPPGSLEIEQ
T28 sequence (O00418 whole entry): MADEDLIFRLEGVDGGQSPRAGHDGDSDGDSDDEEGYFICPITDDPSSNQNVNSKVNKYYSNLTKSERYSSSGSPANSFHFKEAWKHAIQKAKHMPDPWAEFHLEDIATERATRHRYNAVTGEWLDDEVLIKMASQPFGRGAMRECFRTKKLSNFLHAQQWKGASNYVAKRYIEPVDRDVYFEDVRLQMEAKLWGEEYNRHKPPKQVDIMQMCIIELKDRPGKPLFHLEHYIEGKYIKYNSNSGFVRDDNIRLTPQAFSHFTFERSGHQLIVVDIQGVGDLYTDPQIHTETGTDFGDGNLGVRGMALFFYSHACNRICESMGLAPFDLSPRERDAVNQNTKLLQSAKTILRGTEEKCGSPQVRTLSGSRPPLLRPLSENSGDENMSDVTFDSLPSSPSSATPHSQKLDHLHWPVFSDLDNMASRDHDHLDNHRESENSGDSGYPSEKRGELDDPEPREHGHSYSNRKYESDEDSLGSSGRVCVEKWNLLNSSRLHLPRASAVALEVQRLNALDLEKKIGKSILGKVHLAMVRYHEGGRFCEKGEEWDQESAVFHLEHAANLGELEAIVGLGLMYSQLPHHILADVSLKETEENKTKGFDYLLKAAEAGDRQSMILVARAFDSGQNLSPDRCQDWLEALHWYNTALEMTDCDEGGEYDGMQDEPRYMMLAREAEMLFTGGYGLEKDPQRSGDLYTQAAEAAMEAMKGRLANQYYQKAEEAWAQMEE
T10 sequence (Q96GD4 whole entry): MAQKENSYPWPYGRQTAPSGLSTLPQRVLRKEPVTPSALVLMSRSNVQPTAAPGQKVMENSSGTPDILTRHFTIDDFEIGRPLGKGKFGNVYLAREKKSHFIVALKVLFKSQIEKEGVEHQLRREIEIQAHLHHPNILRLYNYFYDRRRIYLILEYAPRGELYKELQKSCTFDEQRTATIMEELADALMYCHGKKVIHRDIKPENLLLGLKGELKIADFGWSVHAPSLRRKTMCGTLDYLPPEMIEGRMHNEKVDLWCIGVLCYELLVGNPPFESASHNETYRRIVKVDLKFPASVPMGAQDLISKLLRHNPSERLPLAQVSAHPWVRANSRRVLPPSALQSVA
T6 sequence (O00506 whole entry): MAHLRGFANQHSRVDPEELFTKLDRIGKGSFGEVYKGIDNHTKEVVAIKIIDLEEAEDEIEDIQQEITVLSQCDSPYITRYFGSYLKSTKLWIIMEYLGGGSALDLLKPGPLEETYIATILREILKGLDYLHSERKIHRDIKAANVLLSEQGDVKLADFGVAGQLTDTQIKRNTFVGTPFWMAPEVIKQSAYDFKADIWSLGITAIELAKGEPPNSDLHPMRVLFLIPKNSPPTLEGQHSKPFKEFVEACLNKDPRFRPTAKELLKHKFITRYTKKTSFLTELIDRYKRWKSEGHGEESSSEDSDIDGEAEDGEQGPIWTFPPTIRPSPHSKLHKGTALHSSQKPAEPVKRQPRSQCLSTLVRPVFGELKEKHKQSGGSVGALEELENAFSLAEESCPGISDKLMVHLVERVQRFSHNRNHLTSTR
T15 sequence (P50613 whole entry): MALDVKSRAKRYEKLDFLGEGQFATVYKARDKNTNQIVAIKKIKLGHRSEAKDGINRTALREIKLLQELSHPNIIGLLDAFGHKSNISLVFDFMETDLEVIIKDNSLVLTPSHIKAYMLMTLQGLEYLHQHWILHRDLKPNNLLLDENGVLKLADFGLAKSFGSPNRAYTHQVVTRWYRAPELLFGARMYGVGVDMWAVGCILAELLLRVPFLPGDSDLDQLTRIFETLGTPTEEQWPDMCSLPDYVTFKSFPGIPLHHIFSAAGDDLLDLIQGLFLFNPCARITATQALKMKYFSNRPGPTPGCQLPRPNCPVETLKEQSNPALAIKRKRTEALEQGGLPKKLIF
T15 sequence (P51946 whole entry partner): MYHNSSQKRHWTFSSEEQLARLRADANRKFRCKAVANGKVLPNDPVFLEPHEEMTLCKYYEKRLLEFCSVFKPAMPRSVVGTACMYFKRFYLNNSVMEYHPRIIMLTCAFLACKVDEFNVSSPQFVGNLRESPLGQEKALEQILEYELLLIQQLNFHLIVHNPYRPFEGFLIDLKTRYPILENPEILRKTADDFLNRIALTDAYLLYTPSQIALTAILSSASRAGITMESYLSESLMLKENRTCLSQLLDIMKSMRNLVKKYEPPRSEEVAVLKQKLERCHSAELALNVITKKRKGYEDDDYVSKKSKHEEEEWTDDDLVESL
T15 sequence (P51948 whole entry partner): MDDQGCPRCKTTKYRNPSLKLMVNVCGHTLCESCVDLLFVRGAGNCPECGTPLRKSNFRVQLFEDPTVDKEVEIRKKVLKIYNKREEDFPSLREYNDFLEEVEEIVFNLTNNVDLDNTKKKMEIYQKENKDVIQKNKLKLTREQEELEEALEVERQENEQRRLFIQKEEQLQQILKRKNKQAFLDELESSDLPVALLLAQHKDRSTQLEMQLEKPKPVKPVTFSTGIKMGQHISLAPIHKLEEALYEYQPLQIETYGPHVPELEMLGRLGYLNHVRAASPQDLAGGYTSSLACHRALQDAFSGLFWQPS
T23 sequence (P78368 whole entry): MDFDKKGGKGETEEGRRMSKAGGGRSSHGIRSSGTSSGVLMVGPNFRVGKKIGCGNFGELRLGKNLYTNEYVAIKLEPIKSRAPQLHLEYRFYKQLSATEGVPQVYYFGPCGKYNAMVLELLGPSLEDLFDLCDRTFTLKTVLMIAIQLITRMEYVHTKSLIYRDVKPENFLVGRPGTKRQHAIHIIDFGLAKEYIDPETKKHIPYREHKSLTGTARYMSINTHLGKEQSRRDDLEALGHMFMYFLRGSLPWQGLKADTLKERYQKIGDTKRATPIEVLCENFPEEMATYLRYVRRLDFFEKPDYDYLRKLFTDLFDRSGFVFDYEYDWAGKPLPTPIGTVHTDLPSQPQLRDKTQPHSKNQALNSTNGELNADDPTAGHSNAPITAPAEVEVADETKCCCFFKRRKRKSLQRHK
T29 sequence (Q00535 whole entry): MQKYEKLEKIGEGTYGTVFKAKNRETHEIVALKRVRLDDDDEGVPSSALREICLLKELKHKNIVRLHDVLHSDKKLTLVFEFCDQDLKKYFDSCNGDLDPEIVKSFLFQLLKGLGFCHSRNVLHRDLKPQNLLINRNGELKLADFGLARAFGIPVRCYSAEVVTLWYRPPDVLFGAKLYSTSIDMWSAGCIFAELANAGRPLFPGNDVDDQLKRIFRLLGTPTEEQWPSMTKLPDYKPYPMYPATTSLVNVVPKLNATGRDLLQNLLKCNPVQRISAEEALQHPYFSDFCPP
T29 sequence (Q15078 99-307 partner limits assumed): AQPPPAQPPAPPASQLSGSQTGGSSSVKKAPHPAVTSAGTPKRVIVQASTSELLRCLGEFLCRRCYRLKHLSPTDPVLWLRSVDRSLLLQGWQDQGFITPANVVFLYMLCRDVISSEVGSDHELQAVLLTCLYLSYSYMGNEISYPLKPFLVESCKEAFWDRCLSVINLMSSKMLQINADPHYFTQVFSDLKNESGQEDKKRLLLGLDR

Regarding `C=C1C(=O)[C@]23[C@H](O)[C@H]1CC[C@H]2[C@@]12CO[C@]3(O)[C@@H](O)[C@@H]1C(C)(C)CC[C@@H]2O` [Oridonin], the activity at 10 µM was 64% on TAO1(h); 76% at ATR/ATRIP(h); 98% at PAK5(h); 141% at SAPK2a(h); 101% at NEK7(h); 105% on STK25(h). Also, the figures for the activity at 10 µM on NEK6(h), at SAPK2b(h) and at PAK6(h) were 99%, 102% and 104%, respectively.
On to `COc1cc2oc(-c3ccc(O)c(O)c3)cc(=O)c2c(O)c1OC` [Cirsiliol], for which the activity at 10 µM on Aurora-B(h) stood at 86%; at Flt4(h) it was 87%; at LKB1(h) it was 96%; at FGFR2(h), 110%; at CK2(h), 84%; on CDK7/cyclinH(h) it was 92%. Besides, the activity at 10 µM on EphB2(h) stood at 98%; on HIPK2(h) it was 100%; at FGFR3(h), 98%; at CK1γ3(h), 104%; at MKK4(m), 101%; at MKK7β(h), 95%. For the same compound, the activity at 10 µM at CSK(h) came out at 100%; at CK1γ2(h), 108%; at EGFR(T790M)(h) it was 117%; at DAPK1(h), 103%; at cKit(h), 93%.
Consider `COc1ccc(CCc2cc(OC)c(OC)c(OC)c2)cc1O` [Erianin], for which the activity at 0.1 µM at Pim-3(h) worked out at 91%; on eEF-2K(h), 91%; at CDK5/p25(h) it was 102%; on A-Raf(h), 109%; at EphB1(h), 91%; at EphA1(h), 101%. Besides, the activity at 0.1 µM on Rsk3(h) was found to be 108%; at Pim-2(h) it was 103%; at MEK2(h), 83%; on Flt1(h), 117%. Further, the “BRAF V600E kinase activity” value at BRAF V600E (416-end) is “could not suppress”. In addition, the “BRAF WT kinase activity” value at BRAF WT (381-end) is given as “could not suppress”.
